The values below come from patent US12115176B2, “Methods and compositions relating to ClbP inhibition” (PRESIDENT AND FELLOWS OF HARVARD COLLEGE, priority 2021, dated 2024).

Molecules are shown by their SMILES. Entries after “also recorded” stand apart in the source; their conditions may differ.

Experiment [1] has as its target purified ClbP (Escherichia coli, UniProt Q0P7K6). Description: ClbP fluorescence activity assay (in vitro). The experiment is classed as biochemical, Escherichia coli CFT073. From the text: Constructs and protein purification for in vitro assays. ClbP constructs described in this publication were derived from a previously described plasmid containing the Escherichia coli CFT073 ClbP sequence (GenBank ID: NP_754344.1) inserted between the NdeI and XhoI restriction sites of pET29b (Addgene plasmid #48244).^14 All in vitro experiments used a construct bearing a C-terminal 10×His tag. This longer polyhistidine-tag was obtained by extension of the previously described 6×His tag through site-directed mutagenesis. All site-directed mutations were introduced using the Quikchange mutagenesis protocol (Stratagene) and confirmed by Sanger DNA sequencing of the whole open reading frame. Plasmids were transformed into chemically competent C41(DE3) (Lucigen) cells and proteins were isolated as previously described.^34
ClbP fluorescence activity assay (in vitro). Assays were performed in a buffer containing 50 mM Tris, 200 mM NaCl, 0.02% w/v DDM at pH 8.0 with 25 nM purified ClbP and 25 μM fluorogenic substrate in a total volume of 20 μL.^34 Purified ClbP was defrosted on ice from stocks stored at −80° C. Stocks were diluted to 50 nM enzyme in assay buffer in the wells of a black, flat-bottom 384-well plate and the appropriate inhibitor in DMSO or DMSO was added to a final concentration of 1%. For experiments testing different inhibitor concentrations, reactions were allowed to sit for 1 hour at room temperature. For experiments testing different preincubation times, the inhibitor in DMSO was added to each reaction X minutes before initiating the reaction, where X is the time indicated on the x-axis for that sample. For experiments to test whether hydrolysis of the boronic ester was rate-limiting, the inhibitor was added to buffer with no enzyme present and allowed to sit at room temperature for the time indicated before adding the enzyme. In all cases, reactions were initiated by the addition of 10 μL, of buffer containing the 50 μM fluorogenic substrate to achieve a final concentration of 25 μM and pipetting once with a multichannel pipette to mix. Reaction progress was monitored in a plate reader (Bio-Tek Synergy HTX multimode plate reader) with an excitation filter of 360/40 nm and an emission filter of 440/20 nm. “% activity” was determined based on the measured relative fluorescence units (RFU) of each condition after 1 hour using the following formula: […]

Experiment [2] deals with FANCD2 in HeLa cell extracts. Nature of the experiment: Western blot for FANCD2. The experiment is classed as cell-based, human. As to conditions: 1 μM 3. How it is done:
Western Blot for FANCD2. Infections were carried out as described above. For conditions which involved other small molecules, no bacteria were introduced during the infection and cells were treated with either 0.5 μg/mL mitomycin C (MMC) or 7.5 μg/mL cisplatin under the same conditions for 4 hours. 20 hours after infection, cells were lysed directly in the culture wells (Lysis buffer: 50 mM Tris, (pH 8.0), 150 mM NaCl, 1% Triton X-100, 0.5% Sodium deoxycholate, 0.05% sodium dodecylsulfate, 1 mM MgSO4, SIGMAFAST Protease inhibitor mix, 100 U/mL benzonase (Millipore-Sigma). Lysates were then spun down at 16,000×g to remove particulates and the supernatant was mixed 1:1 with 2X Laemmli sample buffer (Bio-Rad) containing 50 mg/mL dithiothreitol (DTT). Samples were then heated at 70° C. for 10 minutes and run on an SDS-PAGE gel (3-8% Tris-Acetate Novex gel, Invitrogen) at 150 V for 1.5 hours at 4° C. Bands were then transferred to PVDF membranes (100 V, 1 hour at 4° C.) and blocked with 10% skim milk powder in TBST buffer at 4° C. overnight. Blots were probed sequentially with either mouse anti-actin (1.5 μg/mL) or mouse anti-FANCD2 (0.1 μg/mL) primary antibodies (Thermo Fisher Scientific, Catalog #MA511869 and MA123347), followed by a peroxidase-conjugated goat anti-mouse secondary antibody (Jackson ImmunoResearch product 115-035-003, 0.08 μg/mL). Each probing step was conducted for 90 minutes at room temperature n 2.5% skim milk powder in TBST. Before imaging, blots were washed 3×15 minutes each in TBST […]. Blots were imaged using the SuperSignal™ West Pico PLUS Chemiluminescent Substrate (Thermo Fisher Scientific) kit following the manufacturer's instructions and imaged using an Azure Biosystems c300 imager.

The test system of experiment [3] is HeLa cells infected with NC101. Nature of the experiment: DNA adduct detection by LC-MS. It is filed as cell-based, human. Particulars: 1 μM 3. How it is done: DNA adduct detection. Infections for DNA adduct detection were carried out using the protocol described above in 6-well plates where all volumes and cell numbers were increased by a factor of 4 accordingly. After trypsinization, cell pellets were frozen at −80° C. until analysis. DNA was isolated from cells as previously reported.^15 DNA samples (100 μL, 31-48 μg) in silanized glass vials were incubated at 80° C. for 1 hour. After the incubation, samples were allowed to cool to room temperature, and volumes were increased to 200 μL by adding LC-MS grade water. Samples were filtered using a Centrifree Ultrafiltration Device (30K molecular weight, Millipore Sigma) at 2000× g for 15 minutes. Samples were dried under vacuum and stored at −20° C. Mass spectrometric data was acquired with the following conditions. The dried samples were reconstituted in 10 μL of H2O and 4 μL of the resulting solution were injected onto an UltiMate 3000 RSLCnano UPLC (Thermo Fisher Scientific) system equipped with a 5 μL injection loop. Separation was performed with a capillary column (75 μm ID, 20 cm length, 10 μm orifice) created by hand packing a commercially available fused-silica emitter (New Objective, Woburn, MA) with 5 μm Luna C18 bonded separation media (Phenomenex, Torrance, CA). […]

As for `CC1(C)OB([C@@H](CC(N)=O)NC(=O)CCCc2ccccc2)OC1(C)C` [Compound 3], the IC50 (commonly the concentration at which inhibition is half-maximal) in experiment [1] amounted to 28 nM. The “speed of reaching maximum potency, in words” value in experiment [1] (slow-binding inhibition assay, 100 nM) is “achieved their maximum potency faster than compound 4”. Moreover, the “FANCD2 ubiquitination in colibactin-exposed cells” value in experiment [2] (HeLa cells exposed to pks+ E. coli (NC101)) is listed as “prevented this response; also recorded: prevents”. Besides, the “effect of 3 on FANCD2-Ub response to MMC or cisplatin” value in experiment [2] (HeLa cells) is recorded as “had no impact on the response to MMC or cisplatin”. Further, the “colibactin-derived DNA adduct formation” value in experiment [3] is “could effectively suppress formation of a colibactin-derived DNA adduct; also recorded: sufficient to suppress adduct formation to a degree similar to genetic deletion of clbP; also recorded: prevents”.
